The source of these data is patent US8058243B2, “Method for treating a brain cancer with ifenprodil” (HSC Research and Development Limited Partnership, priority 2006, dated 2011).

This assay deals with murine neural precursor cells (neurosphere cultures). In words: HTS of LOPAC library against secondary neurosphere cultures, MTT proliferation assay at 3 μM, day 7 (z score, P value). Format: cell-based, mouse.
Setting [1] is: yes = significantly inhibited neurosphere proliferation (P<0.01) in the primary screen.
The mark [2] stands for this setting: LOPAC library screen, 3 μM, MTT, secondary neurosphere cultures, day 7.
[3] abbreviates: LOPAC primary screen, neurosphere MTT proliferation, 3 μM, day 7.
Where [4] appears, read: yes/no: significantly inhibited neurosphere proliferation (P<0.01) in the primary screen.
Where [5] appears, read: yes/no: significantly inhibited neurosphere proliferation (P<0.01) in primary screen.
The mark [6] stands for this setting: yes/no: significantly inhibited neurosphere proliferation in primary screen.
Where [7] appears, read: LOPAC library screen at 3 μM, secondary neurosphere cultures, MTT.
Setting [8] is: LOPAC library screen, 3 μM, MTT, neurosphere cultures.
Setting [9] is: primary LOPAC screen, 3 μM, MTT, neurosphere proliferation.
The mark [10] stands for this setting: yes/no: significantly inhibited neurosphere proliferation in the primary screen.
Where [11] appears, read: LOPAC screen, neurosphere MTT proliferation, 3 μM, day 7.

Where a name gives a salt, the structure may show the parent alone. Read-outs that look alike come from different tables or passages of the source.

Regarding `Cc1cnc(NC(=O)C2=C(O)c3ccccc3S(=O)(=O)N2C)s1` [Meloxicam sodium], the Activity entry under setting [1] is reported as “no”.

`Cc1cc(C(C)(C)C)c(O)c(C)c1CC1=NCCN1` [Oxymetazoline hydrochloride]: under setting [2], the “Z Score” value is −2.72. Also, the Z score under setting [3] was −2.720. The Activity result under setting [1] is on record as “yes”.

As for `CC(O)C(C)OC(=O)[C@@H]1C[C@@H]2c3cccc4c3c(cn4C(C)C)C[C@H]2N(C)C1.O=C(O)/C=C\C(=O)O` (stereo partly shown) [LY-53,857 maleate], the “Z Score” value is given as −0.3382. In addition, under setting [3], the Z score is reported as −0.338. Moreover, the Activity entry under setting [4] is listed as “no”.

`Cl.O=c1cc(N2CCOCC2)oc2c(-c3ccccc3)cccc12` [LY-294,002 hydrochloride]: the “Z Score” value is −1.217. The compound also came in with a Z score under setting [3] of −1.217. Besides, under setting [5], the Activity result is on record as “no”.

R(−)-Me5: the “Z Score” value is listed as −1.414. Further, the Z score under setting [3] is −1.414. For the same compound, the Activity result under setting [1] is “no”.

Take `CC(=O)[C@]1(O)Cc2c(O)c3c(c(O)c2[C@@H](O[C@H]2C[C@H](N)[C@H](O)[C@H](C)O2)C1)C(=O)c1ccccc1C3=O` [Idarubicin]: the “Z Score” value under setting [2] was −11.27. Under setting [3], the Z score is recorded as −11.274. The Activity entry under setting [1] was “yes”.

On to `NC(=O)c1cnccn1` [Pyrazinecarboxamide], for which the “Z Score” value under setting [2] is −1.617. The compound also gave a Z score under setting [3] of −1.617. For the same compound, the Activity entry under setting [6] was “no”.

With `CCCn1c(=O)[nH]c(=O)c2[nH]cnc21` [3-n-Propylxanthine], under setting [7], the “Z Score” value was −1.094. Moreover, under setting [3], the Z score was −1.094. In addition, the Activity result under setting [1] is “no”.

Consider `CC(C)(C)NCC(O)c1ccccc1Cl` (stereo not shown) [Tulobuterol hydrochloride], for which, under setting [2], the “Z Score” value is −1.767. This compound also gave a Z score under setting [3] of −1.767. In addition, the Activity result under setting [6] was “no”.

As to `Oc1ccc2c3c1O[C@H]1c4[nH]c5c(c4C[C@@]4(O)[C@@H](C2)N(CC2CC2)CC[C@]314)C[C@@]1(O)[C@H]2Cc3ccc(O)c4c3[C@@]1(CCN2CC1CC1)[C@H]5O4` [nor-Binaltorphimine dihydrochloride], the “Z Score” value worked out at 0.3881. The Z score under setting [3] is listed as 0.388. Besides, under setting [1], the Activity entry is given as “no”.

Regarding `COCC(=O)O[C@]1(CCN(C)CCCc2nc3ccccc3[nH]2)CCc2cc(F)ccc2[C@@H]1C(C)C` [Mibefradil dihydrochloride], under setting [8], the “Z Score” value is reported as −0.02693. Besides, under setting [3], the Z score is reported as −0.027. In addition, under setting [1], the Activity result is given as “no”.

As for `CCCCCN(CCCCC)C(=O)C(CCC(=O)O)NC(=O)c1ccc(Cl)c(Cl)c1` (stereo not shown) [Lorglumide sodium], under setting [2], the “Z Score” value is reported as −2.092. For the same compound, the Z score under setting [3] is given as −2.092. For the same compound, the Activity result under setting [1] is given as “no”.

`Fc1ccc(C(c2ccc(F)cc2)N2CCN(C/C=C/c3ccccc3)CC2)cc1` [Flunarizine dihydrochloride]: the “Z Score” value under setting [8] is given as 0.3954. The compound further gave a Z score under setting [3] of 0.395. Under setting [5], the Activity entry is listed as “no”.

Turning to `CC(=O)[C@H]1CC[C@H]2[C@@H]3CCC4=CC(=O)CC[C@]4(C)[C@H]3CC[C@]12C` [Progesterone], the “Z Score” value under setting [8] was determined as 0.4252. This compound also showed a Z score under setting [3] of 0.425. Besides, under setting [6], the Activity entry is “no”.

With `Cl.NC(N)=NCCNS(=O)(=O)c1cccc2cnccc12` [HA-1004 hydrochloride], the “Z Score” value is 0.3161. The compound further gave a Z score under setting [3] of 0.316. Under setting [5], the Activity result is listed as “no”.

Regarding `COC(=O)c1cc2c(cn1)[nH]c1ccccc12` [Methyl beta-carboline-3-carboxylate], the “Z Score” value worked out at 0.06023. Besides, the Z score under setting [3] was 0.060. The Activity entry under setting [5] is “no”.

`NC(CCCCCP(=O)(O)O)C(=O)O` (racemic) [(±)-2-Amino-7-phospheneheptanoic acid] had a Z score under setting [9] of −1.020. The Activity result under setting [10] is reported as “no”.

For `CC[N+](CC)(CC)CC.[Cl-]` [Tetraethylammonium chloride], the Activity entry is recorded as “no”, the “Z Score” value is 0.123 and the Z score is listed as 0.123.

Regarding `COC1(C2=NCCN2)COc2ccccc2O1.Cl` (stereo not shown) [RX 821002 hydrochloride], the “Z Score” value came to 0.249. This compound also yielded a Z score under setting [3] of 0.249. Moreover, the Activity entry under setting [6] was “no”.

Consider `O=C[C@H](Cl)[C@@H](O)[C@H](O)[C@H](O)CO` [2-Chloro-2-deoxy-D-glucose], for which the “Z Score” value under setting [2] was −2.364. The same compound gave a Z score under setting [3] of −2.364. Besides, the Activity entry under setting [1] is recorded as “yes”.

As to `C[C@@H]1O[C@@H](O[C@H]2C[C@@H](O)[C@]3(CO)[C@H]4[C@H](O)C[C@]5(C)[C@@H]([C@@H]6COC(=O)C6)CC[C@]5(O)[C@@H]4CC[C@]3(O)C2)[C@H](O)[C@H](O)[C@H]1O` [Dihydroouabain], the “Z Score” value is 0.2034. This compound gave a Z score under setting [11] of 0.203. Moreover, under setting [5], the Activity entry was “no”.

Consider `C#CCN(C)Cc1ccccc1` [Pargyline hydrochloride], for which, under setting [7], the “Z Score” value is −0.2794. Further, the Z score under setting [3] is listed as −0.279. Also, the Activity entry under setting [6] was “no”.

As to `C=CCN1CC[C@]23c4c5ccc(O)c4O[C@H]2C(=O)CC[C@@]3(O)[C@H]1C5` [Naloxone hydrochloride], the “Z Score” value under setting [2] is −10.14. For the same compound, the Z score under setting [3] is recorded as −10.137. Also, the Activity result under setting [4] is reported as “yes”.

Turning to `CCN(CC)C(C)C(=O)N1c2ccccc2Sc2ccccc21` (stereo not drawn) [10-(alpha-Diethylaminopropionyl)-phenothiazine], the Z score under setting [3] is given as −1.545. Besides, the Activity result under setting [4] was “no”.

In the case of `CN(C(=O)CCCOc1ccc2[nH]c(=O)ccc2c1)C1CCCCC1` [Cilostamide], under setting [8], the “Z Score” value was 0.1756. The Z score under setting [11] was 0.176. Moreover, the Activity entry under setting [5] is on record as “no”.

Take `CCCN(CCc1ccccc1)C1CCc2c(O)cccc2C1.Cl` (racemic) [(±)-PPHT hydrochloride]: the Z score under setting [3] was −1.915. The Activity result under setting [4] is “no”.

Compound `NC(=O)c1ncn([C@@H]2O[C@H](CO)[C@@H](O)[C@H]2O)c1O` [Mizorbine] returned a Z score under setting [3] of 1.642. The Activity result under setting [1] is “no”.

Turning to `COc1ccccc1N1CCN(CCN(C(=O)c2ccc(F)cc2)c2ccccn2)CC1.Cl.Cl` [p-MPPF dihydrochloride], the “Z Score” value is −2.16.

As for `CC(C)(C)c1o[nH]c(=O)c1CC(N)C(=O)O` (stereo not shown) [ATPA], the Activity entry was “no” and the “Z Score” value turned out to be 0.2832. Besides, under setting [9], the Z score was 0.283.

In the case of `Cc1ccccc1/C=C/C1=NCCN1` [Metrazoline oxalate], where the note is “168 h, 3 µM”, the “Z Score” value turned out to be 0.1073 and the Z score was determined as 0.107. Further, the Activity entry under setting [1] was “no”.

With `COc1cc2c(CCNC(C)=O)c[nH]c2cc1O` [6-Hydroxymelatonin], the “Z Score” value under setting [8] was 0.3767. Moreover, under setting [3], the Z score is listed as 0.377. The Activity result under setting [5] is reported as “no”.

As to `N/C(=N\C(=O)c1nc(Cl)c(N)nc1N)NCc1ccc(Cl)c(Cl)c1` [3′,4′-Dichlorobenzamil], the “Z Score” value is −2.581. Besides, the Z score under setting [3] is on record as −2.581. For the same compound, the Activity result under setting [4] is reported as “yes”.

With `O=C1NCN(c2ccccc2)C12CCN(CC1COc3ccccc3O1)CC2` (stereo not shown) [Spiroxatrine], under setting [8], the “Z Score” value came to 0.1219. In addition, the Z score under setting [3] amounted to 0.122. Moreover, the Activity entry under setting [6] is given as “no”.

In turn, `Br.CCCN1CCC2c3cc(O)ccc3CCC21` (racemic) [cis-(±)-8-OH-PBZI hydrobromide] returned a Z score under setting [3] of −2.297. Besides, the Activity entry under setting [4] is given as “no”.

Take `CNC(=C[N+](=O)[O-])NCCSCc1ccc(CN(C)C)o1` [Ranitidine hydrochloride]: the “Z Score” value under setting [8] turned out to be 0.02275. The compound also yielded a Z score under setting [3] of 0.023. Also, the Activity entry under setting [6] is “no”.

In the case of `Cl.Cn1ccc2cc(NC(=O)Nc3cccnc3)ccc21` [SB 200646 hydrochloride], the “Z Score” value came out at 2.437. Under setting [9], the Z score stood at 2.437. The Activity entry under setting [10] is on record as “no”.

As for `OC[C@H]1O[C@@H](n2cnc3ccccc32)[C@H](O)[C@@H]1O` [D-ribofuranosylbenzimidazole], the “Z Score” value is recorded as −2.144. Also, under setting [11], the Z score was −2.144. The Activity result under setting [5] was “no”.

For `Cl.O=c1[nH]oc2c1CCNC2` [THIP hydrochloride], the “Z Score” value is reported as 0.3613. The Z score under setting [9] turned out to be 0.361. For the same compound, under setting [10], the Activity result is “no”.

Consider `O=c1c(O)c(-c2ccc(O)cc2O)oc2cc(O)cc(O)c12` [Morin], for which, where the note is “168 h, 3 µM”, the “Z Score” value is given as −2.216 and the Z score is −2.216. Also, under setting [1], the Activity result is “no”.

In the case of `COc1ccccc1N1CCN(CC(O)COc2cccc3ccccc23)CC1` (stereo not shown) [Naftopidil dihydrochloride], the “Z Score” value under setting [7] was −0.1172. In addition, the Z score under setting [3] was −0.117. Moreover, the Activity result under setting [6] was “no”.

As to `Br.CCCN(CCC)C1CCc2ccc(O)cc2C1` (stereo not shown) [(B1)-7-Hydroxy-DPAT hydrobromide], the “Z Score” value is recorded as −11.1.

For the compound `C[C@@H]1OC[C@H](C[N+](C)(C)C)O1.[I-]` [(+)-cis-Dioxolane iodide], the “Z Score” value is −3.402. Under setting [3], this compound displayed a Z score of −3.402. Moreover, under setting [4], the Activity result is “yes”.

Regarding `Cc1oncc1C(=O)Nc1ccc(C(F)(F)F)cc1` [Leflunomide], the “Z Score” value (LOPAC library screen at 3 μM, MTT, secondary neurosphere cultures, screened in singlets) is listed as 4.103. The Z score under setting [3] is reported as 4.103. Further, the Activity result under setting [5] is “no”.

With `O=c1[nH]c2ccccc2n1CCCN1CCN(C(c2ccccc2)c2ccccc2)CC1` [Oxatomide], the “Z Score” value under setting [8] is on record as 0.5957. Also, under setting [3], the Z score amounted to 0.596. Also, the Activity result under setting [6] is listed as “no”.
